From patent US20230338345A1, “DRUG COMBINATION AND USE THEREOF” (NATURAL MEDICINE INSTITUTE OF ZHEJIANG YANGSHENGTANG CO., …, priority 2020, published 2023)
Read-outs that look alike come from different tables or passages of the source.

Assays:
[1] = mouse, in vivo
Protocol: (§1) (2) After tumor formation, the mice were divided into four experimental groups, namely, a blank control, a roflumilast group, a sodium ascorbate group, and a roflumilast+sodium ascorbate group. The mice in the roflumilast+sodium ascorbate group were intraperitoneally injected with roflumilast at 4 mg/kg and intravenously injected with sodium ascorbate at 1.5 g/kg every three days, for 5 administrations. At the same time, the roflumilast group and the sodium ascorbate group were separately injected with roflumilast and sodium ascorbate at the same dose in the same way; and normal saline was injected at the same dose in the blank control. The day of the first injection was taken as Day 1, and then the mice were tested and recorded in terms of body weight and tumor size: tumor volume (mm^3)=length (L) ×width (W) 2/2. Luciferin fluorescence imaging was conducted on tumors. That is, a 1 mg/mL D-luciferin potassium aqueous solution was formulated; each mouse was intraperitoneally injected with 100 μL of the D-luciferin potassium aqueous solution, and 10 minutes after injection, was subjected to luciferin fluorescence imaging with a small animal in vivo imager (Model: IVIS Lumina XRMS Series III).

[2] = Body weight of tumor-bearing mice (Example 1); conditions: roflumilast 4 mg/kg i.p., sodium ascorbate 1.5 g/kg i.v., every three days, 5 administrations; compared with the control
Protocol: as §1

| Compound | effect on the body weight of mice [1] | effect on the body weight of mice [2] |
| --- | --- | --- |
| O=C(Nc1c(Cl)cncc1Cl)c1ccc(OC(F)F)c(OCC2CC2)c1 [roflumilast] | no effect on the body weight of mice |  |
| O=C1O[C@H]([C@@H](O)CO)C([O-])=C1O.[Na+] [sodium ascorbate] |  | no effect on the body weight of mice |
